Toxic doses and inconclusive results are not listed. The calls were made as follows: active = survival T/C of 150% or more; inactive = T/C below 125% in these data. Peptide text beside a SMILES is read from it. * marks the point of attachment. Trt = c1ccc(C(c2ccccc2)(c2ccccc2)*)cc1
System: P388 leukemia ip, CD2F1 mice, survival T/C
Test: NCI In Vivo Anticancer Drug Screen. Data for tumor model P388 Leukemia (intraperitoneal) in CD2F1 (CDF1) mice
Conditions: endpoint: median survival time, higher = longer survival
Summary of the method: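 Mice carrying the transplanted tumor received test compound or vehicle. Survival was recorded in each group, and the value is the treated-group measurement divided by that of the vehicle-treated control group.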

[1] = dose: 50.0 mg/kg/injection, schedule: Q01DX009 (ip), vehicle: saline with Tween-80
[2] = dose: 100.0 mg/kg/injection, schedule: Q01DX009 (ip), vehicle: saline with Tween-80
[3] = dose: 200.0 mg/kg/injection, schedule: Q01DX009 (ip), vehicle: saline with Tween-80
[4] = dose: 100.0 mg/kg/injection, schedule: Q04DX003 (ip), vehicle: saline
[5] = dose: 200.0 mg/kg/injection, schedule: Q04DX003 (ip), vehicle: saline
[6] = dose: 60.0 mg/kg/injection, schedule: Q01DX005 (ip), vehicle: saline with Tween-80
[7] = dose: 120.0 mg/kg/injection, schedule: Q01DX005 (ip), vehicle: saline with Tween-80
[8] = dose: 240.0 mg/kg/injection, schedule: Q01DX005 (ip), vehicle: saline with Tween-80
[9] = dose: 50.0 mg/kg/injection, schedule: Q01DX009 (ip), vehicle: Klucel (hydroxypropylcellulose) (HPC)
[10] = dose: 100.0 mg/kg/injection, schedule: Q01DX009 (ip), vehicle: Klucel (hydroxypropylcellulose) (HPC)
[11] = dose: 200.0 mg/kg/injection, schedule: Q01DX009 (ip), vehicle: Klucel (hydroxypropylcellulose) (HPC)
[12] = dose: 50.0 mg/kg/injection, schedule: Q01DX005 (ip), vehicle: saline with Tween-80
[13] = dose: 100.0 mg/kg/injection, schedule: Q01DX005 (ip), vehicle: saline with Tween-80
[14] = dose: 60.0 mg/kg/injection, schedule: Q01DX005 (ip), vehicle: Klucel (hydroxypropylcellulose) (HPC)
[15] = dose: 6.25 mg/kg/injection, schedule: Q01DX009 (ip), vehicle: saline with Tween-80
[16] = dose: 12.5 mg/kg/injection, schedule: Q01DX009 (ip), vehicle: saline with Tween-80
[17] = dose: 25.0 mg/kg/injection, schedule: Q01DX009 (ip), vehicle: saline with Tween-80

Measured: T/C

CCCCCCCCCCCCCCCCCS(=O)S(=O)O (configuration not stated)
inactive: [1] 113 % of control | [2] 118 % of control | dose: 100.0 mg/kg/injection, schedule: Q04DX003 (ip), vehicle: Klucel (hydroxypropylcellulose) (HPC) 100 % of control | [3] 122 % of control | dose: 200.0 mg/kg/injection, schedule: Q04DX003 (ip), vehicle: Klucel (hydroxypropylcellulose) (HPC) 109 % of control | dose: 400.0 mg/kg/injection, schedule: Q04DX003 (ip), vehicle: Klucel (hydroxypropylcellulose) (HPC) 113 % of control

CCCCOCC(C)O (configuration not stated)
inactive: [4] 109 % of control | [5] 100 % of control | dose: 400.0 mg/kg/injection, schedule: Q04DX003 (ip), vehicle: saline 90 % of control

COC(=O)c1[nH]c(=O)c(C#N)c(C(=O)OC)c1C(=O)c1ccccc1
inactive: [6] 99 % of control | [7] 99 % of control | [8] 92 % of control

COC(=O)C1=C(C(=O)OC)[C](C(=O)c2ccccc2)([Sn]([CH3])([CH3])[CH3])N=N1 (configuration not stated)
inactive: dose: 0.78 mg/kg/injection, schedule: Q01DX009 (ip), vehicle: saline 92 % of control | dose: 1.56 mg/kg/injection, schedule: Q01DX009 (ip), vehicle: saline 89 % of control | dose: 3.12 mg/kg/injection, schedule: Q01DX009 (ip), vehicle: saline 93 % of control

[Mn+2].[NH-]CC(=O)NC(Cc1ccccc1)C(=O)O.[NH-]CC(=O)NC(Cc1ccccc1)C(=O)O (configuration not stated)
inactive: [4] 113 % of control | [5] 116 % of control

CCOC(=O)c1cnc[nH]c1=O
inactive: dose: 25.0 mg/kg/injection, schedule: Q04DX003 (ip), vehicle: saline with Tween-80 99 % of control | dose: 50.0 mg/kg/injection, schedule: Q04DX003 (ip), vehicle: saline with Tween-80 100 % of control | dose: 100.0 mg/kg/injection, schedule: Q04DX003 (ip), vehicle: saline with Tween-80 97 % of control | dose: 200.0 mg/kg/injection, schedule: Q04DX003 (ip), vehicle: saline with Tween-80 97 % of control

CC12CC3(C)CC(C)(C1)CC(Br)(C2)C3
inactive: [9] 100 % of control | [10] 99 % of control | [11] 97 % of control

COc1cccc2c1OC(=O)NC2O (configuration not stated)
inactive: dose: 25.0 mg/kg/injection, schedule: Q01DX005 (ip), vehicle: distilled water + Tween-80 103 % of control | dose: 50.0 mg/kg/injection, schedule: Q01DX005 (ip), vehicle: distilled water + Tween-80 107 % of control | [12] 102 % of control | dose: 100.0 mg/kg/injection, schedule: Q01DX005 (ip), vehicle: distilled water + Tween-80 121 % of control | [13] 122 % of control | dose: 200.0 mg/kg/injection, schedule: Q01DX005 (ip), vehicle: distilled water + Tween-80 110 % of control | dose: 200.0 mg/kg/injection, schedule: Q01DX005 (ip), vehicle: saline with Tween-80 112 % of control

O=S(=O)(Cc1ccccc1)C(c1ccccc1)S(=O)(=O)Cc1ccccc1
inactive: [9] 96 % of control | [10] 91 % of control | [11] 100 % of control

COC(=O)C(CC(C)C)NC(=O)C(N)CSC(c1ccccc1)(c1ccccc1)c1ccccc1 (configuration not stated) (H-Cys(Trt)-Leu-OMe; configuration not given here)
inactive: [14] 113 % of control

CC(C)(C)C1=CC2(C(C)(C)C)OC2C(=O)C1=O (configuration not stated)
inactive: dose: 3.12 mg/kg/injection, schedule: Q01DX009 (ip), vehicle: saline with Tween-80 105 % of control | [15] 105 % of control | [16] 98 % of control

Clc1ccc(N=Cc2cccs2)cc1
inactive: dose: 3.13 mg/kg/injection, schedule: Q01DX009 (ip), vehicle: saline with Tween-80 100 % of control | [15] 88 % of control | [16] 90 % of control | [17] 101 % of control | [9] 110 % of control | [10] 100 % of control | [11] 100 % of control

O=C1C2CSCN2C(=O)C2CSCN12 (configuration not stated)
inactive: dose: 100.0 mg/kg/injection, schedule: Q01DX001 (ip), vehicle: Klucel (hydroxypropylcellulose) (HPC) 102 % of control | dose: 200.0 mg/kg/injection, schedule: Q01DX001 (ip), vehicle: Klucel (hydroxypropylcellulose) (HPC) 99 % of control | dose: 400.0 mg/kg/injection, schedule: Q01DX001 (ip), vehicle: Klucel (hydroxypropylcellulose) (HPC) 105 % of control

O=C(O)C(Oc1ccc(Cl)cc1Cl)C(Oc1ccc(Cl)cc1Cl)C(=O)O (configuration not stated)
inactive: [14] 101 % of control | dose: 120.0 mg/kg/injection, schedule: Q01DX005 (ip), vehicle: Klucel (hydroxypropylcellulose) (HPC) 101 % of control | dose: 240.0 mg/kg/injection, schedule: Q01DX005 (ip), vehicle: Klucel (hydroxypropylcellulose) (HPC) 100 % of control

C[C@@H]1C[C@H]2[C@@H]3CCC4=CC(=O)C=C[C@]4(C)[C@@]3(F)[C@@H](O)C[C@]2(C)[C@@]1(O)C(=O)CO
inactive: dose: 25.0 mg/kg/injection, schedule: Q01DX009 (ip), vehicle: saline sonified 100 % of control | dose: 50.0 mg/kg/injection, schedule: Q01DX009 (ip), vehicle: saline sonified 90 % of control

NS(=O)(=O)c1ccc(NC(=O)Nc2c(Cl)cccc2Cl)cc1
inactive: [9] 96 % of control | [10] 87 % of control | [11] 95 % of control

Cc1[nH]cc2c1C(c1ccccc1)=NCC(=O)N2
inactive: [1] 105 % of control | [2] 100 % of control | [3] 114 % of control

CCOC(=O)/C(=C(/C)OC(C)=O)c1ccc([N+](=O)[O-])cc1[N+](=O)[O-]
inactive: dose: 50.0 mg/kg/injection, schedule: Q01DX009 (ip), vehicle: saline 89 % of control | dose: 100.0 mg/kg/injection, schedule: Q01DX009 (ip), vehicle: saline 94 % of control | dose: 200.0 mg/kg/injection, schedule: Q01DX009 (ip), vehicle: saline 93 % of control

[O-]c1ccccc1C=NCCN1CC1.[O-]c1ccccc1C=NCCN1CC1.[Zn+2]
inactive: [15] 91 % of control | [16] 97 % of control | [17] 100 % of control

CC[Si](C#CCOc1ccccc1C1OCCO1)(CC)CC
inactive: [6] 105 % of control | [7] 101 % of control | [8] 99 % of control

COC1c2ccccc2C=CN1C#N (configuration not stated)
inactive: dose: 50.0 mg/kg/injection, schedule: Q01DX005 (ip), vehicle: distilled water + Tween-80 + alcohol 105 % of control | dose: 100.0 mg/kg/injection, schedule: Q01DX005 (ip), vehicle: distilled water + Tween-80 + alcohol 107 % of control

Cc1ccc(OC/C=N\N=C(N)N)cc1C
inactive: [6] 101 % of control | [7] 93 % of control

CCc1cccc(NC(=O)SCc2ccccc2)c1
inactive: [1] 94 % of control | [2] 98 % of control

COc1cc(N)c(S(=O)(=O)O)cc1N=N/C(=N/Nc1cc(S(=O)(=O)O)c(N)cc1OC)C(=O)Nc1ccccc1
inactive: dose: 50.0 mg/kg/injection, schedule: Q01DX005 (ip), vehicle: Klucel (hydroxypropylcellulose) (HPC) 107 % of control | dose: 100.0 mg/kg/injection, schedule: Q01DX005 (ip), vehicle: Klucel (hydroxypropylcellulose) (HPC) 104 % of control | dose: 200.0 mg/kg/injection, schedule: Q01DX005 (ip), vehicle: Klucel (hydroxypropylcellulose) (HPC) 109 % of control

Cc1s\c(=N/N=N/N=c2\sc(C)c(C)n2Cc2ccccc2)n(Cc2ccccc2)c1C
inactive: [6] 103 % of control | [7] 97 % of control | [8] 103 % of control

O=C(Nc1cccc2c(NC(=O)N3CCCCC3)cccc12)N1CCCCC1
inactive: dose: 15.0 mg/kg/injection, schedule: Q01DX005 (ip), vehicle: saline with Tween-80 94 % of control | dose: 30.0 mg/kg/injection, schedule: Q01DX005 (ip), vehicle: saline with Tween-80 93 % of control | [7] 86 % of control | [8] 100 % of control

c1ccc2c(CNC3CCCCC3)c[nH]c2c1
inactive: dose: 25.0 mg/kg/injection, schedule: Q01DX009 (ip), vehicle: Klucel (hydroxypropylcellulose) (HPC) 109 % of control | [9] 98 % of control | [10] 96 % of control

O=C1c2cccc3c([N+](=O)[O-])ccc(c23)C(=O)N1CCCN1CCOCC1
inactive: [12] 114 % of control | [13] 116 % of control

COc1cc2c3cc1Oc1cc(ccc1O)C[C@@H]1c4c(cc(OC)c(O)c4Oc4ccc(cc4)C[C@@H]3[N+](C)(C)CC2)CC[N+]1(C)C
inactive: dose: 0.06 mg/kg/injection, schedule: Q01DX009 (ip), vehicle: saline with Tween-80 96 % of control | dose: 0.13 mg/kg/injection, schedule: Q01DX009 (ip), vehicle: saline with Tween-80 92 % of control | dose: 0.25 mg/kg/injection, schedule: Q01DX009 (ip), vehicle: saline with Tween-80 89 % of control

Reference: PubChem BioAssay AID330 (DTP/NCI, 2004)
